Earlier results, collected in PMC12866986 (European journal of medicinal chemistry, 2026).

Legend:
[1] = system: gut mucosal wound; details: cited from earlier work
[2] = system: Caco-2 cells; details: cited from earlier work
[3] = system: Src; details: at 10 μM; cited from earlier work
[4] = system: Pyk2; details: at 10 μM; cited from earlier work

In the case of `CN(C)C(CNC(=O)Nc1cc(C(F)(F)F)ccc1N1CCOCC1)c1ccncc1` (stereo not shown) [Compound 5a, 1-(2-(dimethylamino)-2-(pyridin-4-yl)ethyl)-3-(2-morpholino-5-(trifluoromethyl)phenyl)urea], the “gut mucosal wound healing in vivo” value [1] is listed as “stimulates gut mucosal wound healing”, the “epithelial sheet migration in vitro” value [2] is listed as “induces epithelial sheet migration” and the Src activation [3] is listed as “does not activate”. For the same compound, the Pyk2 activation [4] was “does not activate”.
